Here are results for 86 compounds from PubChem BioAssay AID1645865 (Buhrlage Lab, Dana-Farber Cancer Institute and Novartis …, 2021).

Calls of active or inactive are those of the source.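 Rule for the calls: active = maximal inhibition of the USP30 enzyme reaching 30% or more across the dose series; inactive = the rest.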 Where only a bound is given, the exact number is not on record here.

What is called IC50 is the point on the concentration scale where inhibition reaches its midpoint.

The assay has as its target Ubiquitin carboxyl-terminal hydrolase 30 (Homo sapiens) (UniProt Q70CQ3). Description: ubiquitin-specific protease 30 DUB inhibitors, concentration-effect, biochemical, validation of primary actives (AID 1645865). The settings on record: purified USP30, Ub-rhodamine cleavage, fluorescence, 2 h.

Ubiquitin carboxyl-terminal hydrolase 30 (Homo sapiens), sequence (Q70CQ3 whole entry, looked up): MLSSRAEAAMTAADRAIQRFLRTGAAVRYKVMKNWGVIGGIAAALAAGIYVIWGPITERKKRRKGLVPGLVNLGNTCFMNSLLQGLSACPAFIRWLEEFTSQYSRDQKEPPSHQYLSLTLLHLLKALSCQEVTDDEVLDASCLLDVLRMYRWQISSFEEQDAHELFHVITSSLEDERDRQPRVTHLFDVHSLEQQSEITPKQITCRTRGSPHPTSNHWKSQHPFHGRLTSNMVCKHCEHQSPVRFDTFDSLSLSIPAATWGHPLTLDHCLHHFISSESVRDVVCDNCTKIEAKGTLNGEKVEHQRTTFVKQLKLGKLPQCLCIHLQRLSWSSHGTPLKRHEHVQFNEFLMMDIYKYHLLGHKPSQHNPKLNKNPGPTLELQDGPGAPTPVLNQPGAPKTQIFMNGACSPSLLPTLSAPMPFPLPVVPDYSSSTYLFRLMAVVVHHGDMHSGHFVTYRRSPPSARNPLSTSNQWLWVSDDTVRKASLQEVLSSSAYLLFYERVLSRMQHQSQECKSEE

On to `CC(NC(=O)c1ccccc1)c1nc2ccccc2n1CC(=O)Nc1ccc2c(c1)OCO2` (stereo unspecified), for which the IC50 was 2.06 µM. Consider `N#C/C(=C/c1sc(N2CCOCC2)nc1-c1ccccc1)c1ccccn1`, for which the IC50 is > 50 µM (inactive). On to `Cc1cc(N2CCC(NC(=O)NCc3ccc(F)cc3)C2=O)ccc1F` (stereo unspecified), for which the half-maximal inhibitory concentration (IC50) was 7.68 µM. As for `COc1ccc(N2C(=O)[C@@H]3[C@H]4c5ccccc5C=CN4C(C(=O)Nc4ccc5c(c4)OCO5)[C@@H]3C2=O)cc1` (stereo partly specified), the IC50 was > 50 µM (inactive). As to `COc1ccc(NC(=O)c2[nH]nc3c2COc2ccccc2-3)c(OC)c1`, the IC50 is 3.47 µM. In the case of `Cc1cccc(C(=O)N2CCc3cc(-c4nc(NC(=O)CNc5ccccc5)sc4C)ccc32)c1`, the IC50 was > 50 µM (inactive).

Take `COc1ccc(-c2cc(-c3ccc(F)cc3)[nH]c(=O)c2C#N)cc1`: the concentration for half-maximal inhibition (IC50) is 22.1 µM. Regarding `COc1ccccc1NC(=O)Cn1cc(C(=O)c2ccc(C)cc2)c(=O)c2cc(Cl)ccc21`, the half-maximal inhibitory concentration (IC50) was 3.86 µM.

With `Cc1c(C(=O)Nc2ccc(-c3nnc4n3CCCCC4)cc2)oc2c1ccc1ccccc12`, the IC50 was > 50 µM (inactive). Consider `CSc1ccc(CNCc2c(C(=O)O)n(Cc3ccccc3)c3cc(C)ccc23)cc1`, for which the IC50 was > 50 µM (inactive). On to `O=C(OC1CSc2nc3ccccc3n2C1)c1ccc([N+](=O)[O-])o1` (stereo unspecified), for which the IC50 is 43.1 µM.

For `CCn1c(Cn2cccn2)nc2cc(NC(=O)c3ccc(F)cc3)ccc21`, the IC50 is > 50 µM (inactive). Turning to `Cc1ccc2nc(CNc3ccc(F)cc3C)cc(=O)n2c1`, the IC50 was > 50 µM (inactive).

Take `O=C(Nc1ccc2c(c1)OCCO2)c1cccc2nc3ccccc3nc12`: the 50% inhibitory concentration (IC50) is 1.56 µM.

Take `Cc1cc(C(=O)N2CC(C(=O)Nc3cc(C(F)(F)F)ccc3Cl)C2)no1`: the IC50 is 29.3 µM. For `COC1C(O)=C2C(=O)O/C(C)=C/C=C/C=C/C=C/CC(c3ccccc3)NC(=O)/C=C/C=C/C=C\C=C\C2(C)C1O` (stereo unspecified), the IC50 was > 50 µM (inactive). `COc1c2nc3ccccc3oc-2cc(=O)c1OC`: the IC50 was > 50 µM (inactive). In the case of `Cc1nc(Nc2c3ccccc3nc3ccccc23)sc1C`, the IC50 is > 50 µM (inactive). Consider `O=C(NCc1cccnc1)c1cnn2c(C(F)(F)F)cc(-c3ccc(F)cc3)nc12`, for which the IC50 is 23.3 µM. Take `N#Cc1ccc(NC(=O)Nc2cccn(Cc3ccccc3Br)c2=O)cc1`: the IC50 is > 50 µM (inactive).

As to `CSc1nc(SCC(N)=O)c2c3c(sc2n1)COC(C)(C)C3`, the IC50 was 30.6 µM. Regarding `COc1ccccc1-c1nc2c3c(ncn2n1)Oc1c(c(C)nn1-c1ccccc1)C3c1cccnc1` (stereo unspecified), the IC50 is 2.85 µM. Then `CCOC(=O)c1sc2c(c1C)c(=O)n(Cc1ccccc1)c(=O)n2CC(N)=O`, with 45.5 µM; and `Cc1nc(-c2ccc(NC(=O)N3CCN(c4ccccn4)CC3)cc2)no1`, with > 50 µM (inactive); and `CCCCC/C=C/C=C/C(=O)OC1C(O)CC(c2ccc3c(c2O)C(=O)c2c(O)cc4cc(C)cc(O)c4c2C3=O)OC1C` (stereo unspecified), with > 50 µM (inactive). Turning to `Cc1cccc(CNC(=O)C2CCCN(S(=O)(=O)Cc3ccc(F)cc3)C2)c1` (stereo unspecified), the concentration for half-maximal inhibition (IC50) was 14.5 µM. For `Cc1nc(N2CCCC2)ncc1C(=O)Nc1ccc(F)c(F)c1`, the IC50 is 31.1 µM.

Consider `O=C(Nc1cccc2ccccc12)N1CCC(c2nc3c(nnn3Cc3ccc(F)cc3)c(=O)[nH]2)CC1`, for which the half-inhibitory concentration (IC50) is 33.9 µM. For `CN[C@H]1CC2(CCN(C(=O)CCCn3cccn3)CC2)OC[C@]1(C)O` the value was > 50 µM (inactive); for `C[C@H](NC(=O)Cc1ccccc1F)c1nc2cc(-c3ccccc3F)ncn2n1`, > 50 µM (inactive).

Consider `COc1cccc(CC(=O)Nc2cc(F)c3nc(N4CCOCC4)ccc3c2)c1`, for which the IC50 is > 50 µM (inactive). With `COc1ccc(COc2ccc3c(C)c(CC(=O)N4CC[C@@]5(O)CCCC[C@H]5C4)c(=O)oc3c2)cc1`, the IC50 was 2.22 µM.

On to `O=C(c1cc2ccccc2o1)N1CC=C(c2ccccc2)CC1`, for which the IC50 is > 50 µM (inactive). In the case of `COc1cc(NC(=O)COC(=O)Cn2cnc3ccccc32)cc(OC)c1`, the IC50 was > 50 µM (inactive). Take `CCOC(=O)c1ccc(NC(=O)Cn2c(=O)n(CC(=O)NCc3ccco3)c(=O)c3ccccc32)cc1`: the half-inhibitory concentration (IC50) was 1.01 µM.

Consider `CCCC(=O)Nc1ccc(SCc2nnc(-c3ccccc3)o2)cc1`, for which the IC50 was > 50 µM (inactive). In the case of `COc1ccc2cc1Oc1cc(ccc1OC)C(O)C13SSC4(C(=O)N1C)C(O)C1=COC=CC(OC2=O)C1N4C3=O` (stereo unspecified), the IC50 is 0.674 µM. For `Cc1ccccc1NC(=O)c1ccc(N2CCCCC2)nn1` the value was > 50 µM (inactive). As for `N#Cc1ccc(NC(=O)c2ccc(S(=O)(=O)N3CCCCC3)cc2)cc1`, the IC50 was 8.97 µM. As to `COc1ccc(N2CCN(Cc3nnnn3Cc3ccc4c(c3)OCO4)CC2)cc1`, the IC50 was > 50 µM (inactive).

In the case of `O=C(CN1C(=O)c2ccccc2Sc2ccc(C(=O)N3CCCC3)cc21)Nc1ccccc1Cl`, the IC50 was > 50 µM (inactive). Then `O=C(Cn1cnc2ccccc21)Nc1ccc2c(c1)CCC2`, with 42.6 µM.

On to `Cc1sc(NC(=O)/C=C/c2ccco2)nc1-c1ccccc1`, for which the IC50 is > 50 µM (inactive). As to `Cc1ccc(C)c(NS(=O)(=O)c2cc(-c3cnc(C4CC4)o3)ccc2C)c1`, the IC50 was > 50 µM (inactive). For `CCOC(=O)c1sc2nc(CC(=O)OC)nc(NCc3ccco3)c2c1C`, the IC50 was > 50 µM (inactive). Consider `CCOc1ccc(NC(=O)COc2cccc3c2CCN(CC)C3=O)cc1`, for which the IC50 was > 50 µM (inactive). Take `COc1ccc(C(=O)Nc2sc3c(c2C(=O)NCc2cccnc2)CCCC3)cc1`: the IC50 was 4.43 µM. For `Cc1noc(C)c1CN1CC[C@H]2O[C@H](C(=O)NCc3ccco3)CC[C@H]21`, the IC50 is > 50 µM (inactive). Regarding `Cc1ccc(NC(=O)Cn2c(-n3nc(C)cc3C)nc3c(c2=O)CCCC3)c(C)c1`, the IC50 is 25.6 µM. For `O=C1CC(C(=O)Nc2ccc(F)cc2)n2nc(SCc3ccccc3)nc2N1` (stereo unspecified), the half-maximal inhibitory concentration (IC50) is 26.8 µM. For the compound `O=C(NCCCc1nc2ccccc2n1Cc1c(Cl)cccc1Cl)c1ccco1`, the IC50 was 25 µM. For the compound `O=C(Nc1nnc2n1CCCS2)c1cccc(Cl)c1`, the IC50 is > 50 µM (inactive). Then `O=C(NCCN1CCCC1)C1CCN(c2cnc(N3CCCCC3)nc2)CC1`, with > 50 µM (inactive); and `CC(C)(C)c1cc(CCC(=O)Nc2c3c(nc4c2CCC4)CCCC3)cc(C(C)(C)C)c1O`, with > 50 µM (inactive).

Consider `Cn1c2ccccc2c(=O)c2c(=O)n(Cc3ccccc3)c(-c3ccco3)nc21`, for which the IC50 is 1.56 µM. Consider `COc1ccc(CCNC(=O)CCCCn2c(=O)c3ccccc3n(Cc3cccc(Cl)c3)c2=O)cc1OC`, for which the 50% inhibitory concentration (IC50) was 24.6 µM. Turning to `Cc1csc2ncc(C(=O)N3CCN(c4ccccc4F)CC3)c(=O)n12`, the IC50 was > 50 µM (inactive). As to `CCN1C(=O)c2cccnc2Sc2cc(NC(=O)c3ccc(Cl)s3)ccc21`, the IC50 is > 50 µM (inactive). For the compound `CCC1OC(O)(C(C)C(O)C(C)C2OC(=O)/C(C)=C/C(C)=CC(C)C(O)C(C)C/C(C)=C/C=C/C2OC)CC(OC(=O)/C=C/C(=O)NC2=C(O)CCC2=O)C1C` (stereo unspecified), the IC50 is > 50 µM (inactive). As to `O=C(O)c1ccc(C2Cc3c([nH]c(=O)[nH]c3=O)O2)cc1` (stereo unspecified), the IC50 is 9.78 µM.

Turning to `COc1ccc(C(=O)Nc2ccc3c(c2)Sc2ncccc2C(=O)N3C)cn1`, the IC50 was > 50 µM (inactive). For `COc1cc(Cl)c(C)cc1NC(=O)Cn1c(=O)n(CC(=O)NCc2ccco2)c(=O)c2ccccc21` the value was 1.34 µM; for `COc1ccc(OCCn2c(C3CC(=O)N(c4cccc(C)c4)C3)nc3ccccc32)cc1` (stereo unspecified), 0.356 µM; for `O=C(CSc1ncnc2c1sc1cccc(F)c12)N1CCCCCC1`, > 50 µM (inactive).

With `CCOC(=O)c1ccc(S(=O)(=O)N2CCC(C(=O)OC(C)C(=O)Nc3cccc([N+](=O)[O-])c3)CC2)cc1` (stereo unspecified), the IC50 was 2.51 µM. For `CCCCCCCc1cc(O)cc(O)c1` the value was 38.9 µM. Consider `COc1ccc(-c2cc(-c3ccc(O)cc3)nc(N)c2C#N)cc1OC`, for which the IC50 is > 50 µM (inactive). As to `COc1ccc(CC(=O)Nc2nc(-c3ccco3)c(-c3ccco3)s2)cc1`, the IC50 was > 50 µM (inactive). Turning to `O=C(Nc1ccccc1Br)c1ccn(COc2ccccc2F)n1`, the IC50 is 14.8 µM. As for `O=C(CCCn1c(=O)c2ccccc2n(CC(=O)NCc2ccccc2Cl)c1=O)NCc1ccc2c(c1)OCO2`, the IC50 was 1.69 µM. Take `Cc1cc(C(=O)Nc2cc(C)n(Cc3ccc(Cl)cc3)n2)no1`: the IC50 is > 50 µM (inactive).

`Cc1c(-c2nc(-c3ccccc3Cl)no2)nnn1-c1cccc(F)c1`: the IC50 is 4.07 µM. In the case of `COc1cc2c(cc1OC)-c1cc(NCc3cc(OC)c(OC)c(OC)c3)nc(=O)n1CC2`, the IC50 is > 50 µM (inactive).

Consider `Cc1nn(C)c2c1[C@@H](c1ccc(F)cc1)[C@H](NC(=O)c1ccccc1)C(=O)N2`, for which the IC50 was > 50 µM (inactive). Consider `O=C(CN1CCCCC1)Nc1nnc(-c2ccc([N+](=O)[O-])cc2)s1`, for which the IC50 was 22.5 µM.

For `Cc1ccc(Nc2nc(NCCc3ccccc3)nc3c2cnn3C)cc1`, the IC50 is 29.2 µM. As for `Cc1nn(Cc2ccccc2)c(C)c1C(=O)NC1CCCc2ccccc21` (stereo unspecified), the IC50 was > 50 µM (inactive). For `CCc1ccc(-n2nc(C)c3c2NC(=O)CC3C(=O)c2ccc3c(c2)OCCO3)cc1` (stereo unspecified), the IC50 was 21 µM. For the compound `Cc1cc(C)c2cc3c(nc2c1)OC(=O)N(Cc1ccco1)C3`, the IC50 is 23.2 µM. On to `COc1ccc(CN=C2NS(=O)(=O)C(c3ccc(F)cc3)=C2C)cc1OC`, for which the IC50 was 25.8 µM. On to `COc1ccc(-c2cc3c(=O)n(CC(=O)Nc4ccccc4F)ccn3n2)cc1OC`, for which the concentration for half-maximal inhibition (IC50) was 11.8 µM. Consider `Cc1ccc(CSC2=NS(=O)(=O)c3ccccc3N2)cc1`, for which the IC50 is > 50 µM (inactive). As to `O=[N+]([O-])c1ccc2c(c1)nc1n2CCN(Cc2ccco2)C1`, the IC50 was > 50 µM (inactive).

Regarding `CCOc1ccccc1NC(=O)COc1cc(OC)ccc1C(=O)c1ccccc1`, the IC50 was > 50 µM (inactive).

Turning to `CC(C)c1nc2sc3c(NCc4ccco4)ncnc3c2c2c1CCC2`, the IC50 is > 50 µM (inactive). `Cc1cc(C(F)(F)F)n2nc(C3CCN(C(=O)c4cnn(C)c4C)C3)cc2n1` (stereo unspecified): the IC50 was > 50 µM (inactive).
